Measurements from patent US20030059511A1, “Sweetener compositions and uses thereof” (AJINOMOTO CO., INC., priority 1999, published 2003).

Key:
Type in all cases: in vivo, human
[1] = Taste characteristics in a cola drink (9 items, similarity index vs cola drink containing 10% sucrose); conditions: non-carbonated cola drink, PSE 10%, vs cola drink with 10% sucrose; smaller = closer to sucrose; 8 panelists
Protocol: The following experiments were performed in the same way as that of Example 2. Instead of aqueous solution, the cola drink of each of derivatives 1 to 9 having a sweetness level equivalent to that of PSE 10% was prepared, and compared with the cola drink containing 10% sucrose. The evaluation method and so on were same as that of Example 2.
When carbon dioxide is blown in the cola drink, the carbonated cola drink is prepared, however, the taste of the cola drink can be compared more easily in that without carbon dioxide. Thus the sensory evaluation of non-carbonated cola drink was performed.
The composition of the cola drink employed was same as that of Example 1.
(§1) The similarity indexes were calculated as those of aqueous solutions. The smaller the similarity index becomes, the better the taste balances, and the closer the taste is to the taste characteristics (quality) of sucrose. The total taste becomes preferable. The similarity indexes of each derivatives are shown as follows. […]
The following experiments were conducted in the same way as that of Example 15. Instead of aqueous solution, the cola drink of each of derivatives 1 to 9 having a sweetness level equivalent to that of PSE 10% was prepared, and compared with the cola drink containing 10% sucrose. All of the evaluation method and so on were same as those of Example 15.
When carbon dioxide is blown in the cola drink, the carbonated cola drink is prepared, however, the taste of the cola drink can be compared more easily in that without carbon dioxide. Thus the non-carbonated cola drink was organoleptically evaluated.
The composition of the cola drink employed was same as that of Example 14.
as §1, with “(quality)of” for “(quality) of”, “each of the” for “each”

[2] = Equivalent concentration of bitter taste, sensory evaluation, mixed amino acids (Example 29); conditions: 2% mixed amino acids; addition: Derivative 2 10 ppm, Glycyrrhizin 250 ppm, Sucrose 50000 ppm; no addition 0.105
Protocol: (§2) With respect to the solution produced by adding derivative 1 (the product of the present invention), or adding nothing (no addition; the reference product) in the concentration shown in the following table 4 to the amino acid solution (2% solution of arginine by weight), the sensory evaluation was performed (using 10 panelists), and the equivalent concentration of bitter taste was determined. The results were shown in the table 4, wherein the equivalent concentration of bitter taste was shown in the concentration of aqueous solution of anhydrous caffeine which is a substance of bitter taste.
With respect to the solution produced by adding derivative 2, Glycyrrhizin or sucrose (the product of the present invention), or adding nothing (no addition; the-reference product) to 2% (by weight) solution of the mixed amino acids (leucine:valine:isoleucine=1:0.5:0.5 by weight), the sensory evaluation was performed (using 10 panelists), and the equivalent concentration of bitter taste was determined in the same way as that described in Example 28, and shown in the table 5.

[3] = Taste characteristics in an aqueous solution (9 items, similarity index vs aqueous 10% sucrose solution); conditions: PSE 10%, smaller = closer to sucrose, 8 panelists
Protocol: The following experiments were performed using the water obtained by ion exchanging and further distilling the water.
An aqueous solution of each of derivatives 1 to 9 having a sweetness level equivalent to that of PSE 10% was prepared, and compared with aqueous 10% sucrose solution with respect to the following 9 items, i.e., “onset of the taste”, “round taste”, “clear taste”, “lingering taste”, “peculiar taste”, “heavy taste”, “bitter taste”, “astringent taste” and “irritation”. The results were determined as 5 levels (−2 point: very weak, −1 point: a little weak, 0 point: same, +1 point: a little strong, +2 point: very strong) by 8 panelists, and the average points were calculated. The sample solutions of the derivatives equivalent to PSE 10%, were prepared by using the magnification of sweetness intensity measured in Example 1, and the amounts of each derivatives to be used were as follows.
Next, the total of the absolute value of the deviation from sucrose in each of the evaluation items consisting of the onset of the taste, the round taste, the clear taste, the lingering taste, the peculiar taste, the heavy taste, the bitter taste, the astringent taste and the irritation was divided by 9 (total number of items) to calculate the similarity (which is referred to as “similarity index”). The smaller the similarity index becomes, the better the taste balances, and the closer the taste is to the taste characteristics (quality) of sucrose. The total taste becomes preferable. The similarity indexes of each derivatives are shown as follows.
To the aqueous solution of derivative 1 having a sweetness level equivalent to that of PSE 10%, salt was added as final concentratins of 0.1%, 0.2% and 0.5% to compare with the aqueous solution of 10% sucrose for by 2 points comparison method (n=8) and evaluate the characteristics of the taste.
The sensory evaluation was performed by the same way as Example 6.
The following experiments were conducted using the water obtained by ion exchanging and further distilling tap water.
An aqueous solution of each of derivatives 1 to 9 having a sweetness level equivalent to that of PES 10% was prepared, and compared with aqueous 10% sucrose solution with respect to 9 items, namely, “the onset of the taste”, “round taste”, “clear taste”, “lingering taste”, “peculiar taste”, “heavy taste”, “bitter taste”, “astringent taste” and “irritation”. The results were determined as 5 levels (−2 point: very weak, −1 point: a little weak, 0 point: same, +1 point: a little strong, +2 point: very strong) by 8 panelists, and the average points were calculated.
Next, the total of the absolute value of the deviation from sucrose in each of the evaluation items consisting of onset of the taste, round taste, clear taste, lingering taste, peculiar taste, heavy taste, bitter taste, astringent taste and irritation was divided by 9 (total number of items) to calculate the similarity (which is refer to as “similarity index”). The smaller the similarity index becomes, the better the taste balances, and the closer the taste is to the taste characteristics (quality) of sucrose. The total taste becomes preferable. The similarity indexes of each of the derivatives are shown as follows.

[4] = Equivalent concentration of bitter taste (Example 30), Quinine sulfate; conditions: derivative 4 2.2 ppm; Quinine sulfate 39 ppm; no addition 0.084
Protocol: as §2
(§3) With respect to the solution produced by adding derivative 4 (2.2 ppm) to each of the substances of Quinine sulfate (39 ppm), anhydrous caffeine (2000 ppm), ferrous citrate (50 ppm), calcium lactate (1500 ppm), and thiamine hydrochloride (5000 ppm) (the product of the present invention), or adding nothing thereto (no addition; the reference product) the reference product (no addition), the sensory evaluation was performed (using 10 panelists), and the equivalent concentration of bitter taste was determined in the same way as that described in Example 28, and shown in table 6.

[5] = Equivalent concentration of bitter taste (Example 30), thiamine hydrochloride; conditions: derivative 4 2.2 ppm; thiamine hydrochloride 5000 ppm; no addition 0.131
Protocol: as §2, §3

[6] = Equivalent concentration of bitter taste (Example 30), ferrous citrate; conditions: derivative 4 2.2 ppm; ferrous citrate 50 ppm; no addition 0.027
Protocol: as §2, §3

[7] = Equivalent concentration of bitter taste, sensory evaluation, arginine solution (Example 28); conditions: 2% arginine solution; addition 4.4 ppm; as concentration of anhydrous caffeine; 10 panelists; no addition 0.131
Protocol: as §2

SMILES | Similarity index [1] | Equivalent concentration of bitter taste [2] [g/100 g] | Similarity index [3] | Equivalent concentration of bitter taste (Amount of anhydrous caffeine g/100 g), Quinine sulfate [4] [g/100 g] | Equivalent concentration of bitter taste (Amount of anhydrous caffeine g/100 g), Tiamine hydrochloride [5] [g/100 g] | Equivalent concentration of bitter taste (Amount of anhydrous caffeine g/100 g), Ferrous citarte [6] [g/100 g] | Equivalent concentration of bitter taste [7] [g/100 g]
COC(=O)[C@H](Cc1ccccc1)NC(=O)[C@H](CC(=O)O)NCCCc1ccc(OC)cc1 [Derivative 2, N-[N-[3-(4-methoxyphenyl)propyl]-L-α-aspartyl]-L-phenylalanine 1-methyl ester] | 0.80 | 0.051 | 0.63 |  |  |  | 
COC(=O)[C@H](Cc1ccccc1)NC(=O)[C@H](CC(=O)O)NCCC(C)(C)c1ccc(O)c(C)c1 [Derivative 4, N-[N-[3-(3-methyl-4-hydroxyphenyl)-3-methylbutyl]-L-α-aspartyl]-L-phenylalanine 1-methyl ester] | 1.04 |  | 0.93 | 0.025 | 0.093 | 0.020 | 
COC(=O)[C@H](Cc1ccccc1)NC(=O)[C@H](CC(=O)O)NCCC(C)(C)c1ccc(O)cc1 [Derivative 6, N-[N-[3-(4-hydroxyphenyl)-3-methylbutyl]-L-α-aspartyl]-L-phenylalanine 1-methyl ester] | 0.81 |  | 0.93 |  |  |  | 
COC(=O)[C@H](Cc1ccccc1)NC(=O)[C@H](CC(=O)O)NCCCc1ccc(O)c(C)c1 [Derivative 8, N-[N-[3-(3-methyl-4-hydroxyphenyl)propyl]-L-α-aspartyl]-L-phenylalanine 1-methyl ester] | 1.00 |  | 0.77 |  |  |  | 
COC(=O)[C@H](Cc1ccccc1)NC(=O)[C@H](CC(=O)O)NCCCc1ccc(OC)c(O)c1 [Derivative 1, N-[N-[3-(3-hydroxy-4-methoxyphenyl)propyl] -L-α-aspartyl]-L-phenylalanine 1-methyl ester] | 0.78 |  | 1.17 |  |  |  | 0.060
